Assay results taken from the supplement of paper PMC10307832.

Columns and labels:
Assay in all cases: relative viability (nuclei count vs DMSO), 5 days (fraction); higher = more cells survive
Temozolomide + OSI-027 = compound: Cn1nnc2c(C(N)=O)ncn2c1=O [Temozolomide] + COc1cccc2cc(-c3nc([C@H]4CC[C@H](C(=O)O)CC4)n4ncnc(N)c34)[nH]c12 [OSI-027] (partner 0.5 µM)
Procedure, shortened: (§1)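 For relative viability, nuclei counts in treated wells were divided by those in vehicle wells. Lung cancer cell lines had been pin-tool dosed in 1536-well plates the day after seeding and cultured for 5 days, then fixed and stained in one step (final 0.05% Triton X-100, 1% formaldehyde, 1 ug/ml Hoechst) and imaged at 4×. Doses were one drug alone or a fixed anchor-drug dose plus five library-drug doses (not always all listed) in √10 steps, and values are duplicate-plate medians.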

Temozolomide + AZD7762 = compound: Cn1nnc2c(C(N)=O)ncn2c1=O [Temozolomide] + NC(=O)Nc1cc(-c2cccc(F)c2)sc1C(=O)N[C@H]1CCCNC1 [AZD7762] (partner 0.2 µM)
Procedure, shortened: as §1

AZD5582 + Luminespib = compound: C[C@@H](C(=O)N[C@@H](C1CCCCC1)C(=O)N2CCC[C@H]2C(=O)N[C@@H]3[C@@H](CC4=CC=CC=C34)OCC#CC#CCO[C@@H]5CC6=CC=CC=C6[C@@H]5NC(=O)[C@@H]7CCCN7C(=O)[C@H](C8CCCCC8)NC(=O)[C@H](C)NC)NC [AZD5582] + CCNC(=O)c1noc(-c2cc(C(C)C)c(O)cc2O)c1-c1ccc(CN2CCOCC2)cc1 [Luminespib] (partner 0.01 µM)
Procedure, shortened: as §1

AZD5582 + Pictilisib = compound: C[C@@H](C(=O)N[C@@H](C1CCCCC1)C(=O)N2CCC[C@H]2C(=O)N[C@@H]3[C@@H](CC4=CC=CC=C34)OCC#CC#CCO[C@@H]5CC6=CC=CC=C6[C@@H]5NC(=O)[C@@H]7CCCN7C(=O)[C@H](C8CCCCC8)NC(=O)[C@H](C)NC)NC [AZD5582] + CS(=O)(=O)N1CCN(Cc2cc3nc(-c4cccc5[nH]ncc45)nc(N4CCOCC4)c3s2)CC1 [Pictilisib] (partner 1 µM)
Procedure, shortened: as §1

RERF-LC-KJ
relative viability (Temozolomide + OSI-027; first compound 0.2 µM): 0.495
relative viability (Temozolomide + OSI-027; first compound 0.6325 µM): 0.6
relative viability (Temozolomide + OSI-027; first compound 2 µM): 0.597
relative viability (Temozolomide + OSI-027; first compound 6.325 µM): 0.53
relative viability (Temozolomide + OSI-027; first compound 20 µM): 0.554
relative viability (Temozolomide + AZD7762; first compound 0.2 µM): 0.977
relative viability (Temozolomide + AZD7762; first compound 0.6325 µM): 0.926
relative viability (Temozolomide + AZD7762; first compound 2 µM): 0.989
relative viability (Temozolomide + AZD7762; first compound 6.325 µM): 0.953
relative viability (Temozolomide + AZD7762; first compound 20 µM): 1.01
relative viability (AZD5582 + Luminespib; first compound 0.01581 µM): 1.22
relative viability (AZD5582 + Luminespib; first compound 0.05 µM): 1.06
relative viability (AZD5582 + Pictilisib; first compound 0.001581 µM): 0.471
relative viability (AZD5582 + Pictilisib; first compound 0.01581 µM): 0.541
relative viability (AZD5582 + Pictilisib; first compound 0.05 µM): 0.392
